Drawing on PubChem BioAssay (NCI), this text covers GI50 and TGI for 7 compounds.

Common to all, as to assay: NCI anticancer screen, dose series, 48 h
In experiment [1] the test system is HOP-92 NSCLC.
The subject of experiment [2] is SR leukemia.
The test system of experiment [3] is IGROV1 ovarian.
For experiment [4], the system named is NCI-H226 lung.
The subject of experiment [5] is CCRF-CEM leukemia.
Experiment [6] concerns UO-31 renal.
The subject of experiment [7] is MOLT-4 leukemia.
In experiment [8] the test system is NCI-H23 lung.
The test system of experiment [9] is SNB-19 CNS.
For experiment [10], the system named is HCT-116 colon.

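Exposure lasted 48 hours, with cells grown in 96-well plates and compounds tested at five concentrations. Here, GI50 denotes the concentration required for 50% inhibition of growth. TGI: total growth inhibition.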

As for `COc1cc(C2CC(c3ccccc3)=NN2C(C)=O)cc(OC)c1OC` (centres undefined), the GI50 was 32.9 µM in experiment [1]; 0.996 µM in experiment [2]; 4.66 µM in experiment [3]; 6.8 µM in [4]; 3.09 µM in experiment [5]; 7.09 µM in experiment [6]. Also, the GI50 in experiment [7] is 5.5 µM; in experiment [8] it was 5.91 µM; in [9] it was 5.63 µM; in [10] it was 2.83 µM. Besides, the TGI in experiment [1], in [2], in experiment [3], in experiment [4], in experiment [5] and in experiment [6] was greater than 100 µM each time. Further, the TGI in experiment [7], in experiment [8], in experiment [9] and in [10] was greater than 100 µM each time.

As for `Cc1[nH]nc2ccc3nc(-c4ccc5[nH]ncc5c4)c4c(c3c12)CCCC4`, the GI50 was 1.91 µM in experiment [1]; 0.525 µM in experiment [2]; 0.492 µM in experiment [3]; 1.89 µM in experiment [4]; 2.13 µM in [5]; 0.802 µM in [6]. Also, the GI50 in experiment [7] was 1.92 µM; in experiment [8] it was 2.22 µM; in experiment [9], 2.62 µM; in experiment [10], 0.473 µM. Besides, the TGI in experiment [1] was 6 µM; in [2] it was 25.7 µM; in experiment [3], 7.14 µM; in [4], 10.8 µM; in experiment [5], greater than 100 µM; in [6], 5.99 µM. Also, the TGI is 10.1 µM in experiment [7], 11.2 µM in experiment [8], 12.1 µM in experiment [9] and 11.3 µM in experiment [10].

Consider `O=C(Cc1ccccc1)NC(c1ccc(Cl)cc1)c1c(O)ccc2ccccc12` (centres undefined), for which the GI50 in experiment [1] is 2.77 µM; in [2] it was 2.56 µM; in experiment [3] it was 4.67 µM; in experiment [4] it was 3.15 µM; in [5], 3.91 µM; in experiment [6], 2.41 µM. The GI50 in experiment [7] is 3.51 µM; in experiment [8] it was 2.92 µM; in [9] it was 3.25 µM; in [10], 2.17 µM. Moreover, the TGI in [1] came to 7.24 µM; in experiment [2] it was 10.1 µM; in experiment [3], 18.3 µM; in experiment [4] it was 12 µM; in experiment [5] it was 26.7 µM; in experiment [6], 8.93 µM. In addition, the TGI in [7] is 20.3 µM; in [8], 9.2 µM; in experiment [9], 13.8 µM; in [10], 5.16 µM.

Turning to `COc1nc(N)nc2c1ncn2[C@@H]1O[C@H](CO)[C@@H](O)[C@@H]1O`, the GI50 in experiment [1] is greater than 100 µM; in experiment [2], greater than 100 µM; in experiment [3], greater than 100 µM; in [4] it was greater than 100 µM; in experiment [5], 2.66 µM; in [6] it was greater than 100 µM. Further, the GI50 in experiment [7] was 9.51 µM; in [8], greater than 100 µM; in experiment [9], greater than 100 µM; in [10], greater than 100 µM. Further, the TGI in experiment [1], in [2], in [3], in [4], in [5] and in [6] was greater than 100 µM each time. Besides, the TGI in experiment [7], in [8], in experiment [9] and in experiment [10] was greater than 100 µM in each case.

With `Cc1nn(-c2ccccc2)c2nc3c(nc12)C1=NCCN1C(c1ccc(Cl)cc1)N3` (centres undefined), the GI50 in experiment [1] was 2 µM; in experiment [2], 2.48 µM; in experiment [3], 11.7 µM; in [4], 5.04 µM; in experiment [5], 2.69 µM; in [6], 7.84 µM. Also, the GI50 is 2.38 µM in experiment [7], 15.3 µM in [8], 9.91 µM in experiment [9] and 2.16 µM in experiment [10]. Besides, the TGI came to 9.69 µM in experiment [1]; 6.32 µM in experiment [2]; 27.4 µM in experiment [3]; 14.4 µM in experiment [4]; 7.85 µM in experiment [5]; 21.5 µM in experiment [6]. The TGI in experiment [7] came to 6.01 µM; in experiment [8] it was 31.6 µM; in experiment [9], 26.9 µM; in experiment [10], 4.86 µM.

With `COc1ccc2c(c1)/C(=C\c1c(Cl)n(C)c3ccccc13)C(=O)N2`, the GI50 in experiment [1] is 5.5 µM; in experiment [2], 0.157 µM; in experiment [3], 0.561 µM; in experiment [4] it was 2.19 µM; in [5], 3.53 µM; in [6], 3.71 µM. Also, the GI50 was 1.7 µM in [7], 1.99 µM in [8], 1.85 µM in [9] and 1.29 µM in [10]. Moreover, the TGI is 29.4 µM in [1]; 0.605 µM in [2]; 19.5 µM in experiment [4]; greater than 100 µM in experiment [5]; 20.6 µM in experiment [6]; greater than 22 µM in experiment [7]. Further, the values for the TGI in [8], in experiment [9] and in [10] were 11.4 µM, 23 µM and greater than 28.6 µM, respectively.

For `CCCCCCCCCCCCCCCCCC(=O)OCC(C[As](=O)(O)O)OC(=O)CCCCCCCCCCCCCCCCC` (centres undefined), the TGI was 40.4 µM in experiment [1]; 38.9 µM in [2]; greater than 100 µM in experiment [3]; 70.4 µM in experiment [4]; greater than 100 µM in experiment [5]; greater than 100 µM in experiment [6]. In addition, the TGI in experiment [7] was greater than 100 µM; in experiment [8], greater than 100 µM; in experiment [9] it was 77.4 µM; in [10], greater than 100 µM.
